Results: US7678390B2, “Carbon monoxide as a biomarker and therapeutic agent” (priority 1999, dated 2010)
Marks after values point to notes of the source that are not given here.

Legend:
[1] = tested on: rat pulmonary vascular smooth muscle cells; assay: cGMP radioimmunoassay in vascular smooth muscle cells; format: cell-based; conditions: 2 h
Description: (§1) Animals. Male C57BL/6 and IL-10 (−/−) mice were purchased from Jackson Laboratory (Bar Harbor, Me.), and allowed to acclimate for one week with rodent chow and water ad libitum. The MKK (−/−) mice were generated as previously described [Lu, et al., EMBO J. 18:1845-1857 (1999)]. Wild type littermates were used as controls. All animals were housed in accordance with guidelines from the American Association for Laboratory Animal Care and Research Protocols and were approved by the Animal Care and Use Committee of Yale University School of Medicine. Reagents. All reagents were purchased from Sigma Chemical Co. (St Louis, Mo.) unless specified otherwise. Plasmid Construct. Plasmid pSFFV/HO-1 was constructed by insertion of the rat HO-1 cDNA [Shibahara, et al., Proc. Natl. Acad. Sci. USA. 82: 7865-7869 (1985)] downstream of the Friend spleen focus-forming virus 5′ long-terminal repeat in the mammalian expression vector pSFFV/neo [Fuhlbrigge, et al, Proc. Natl. Acad. Sci. USA. 85: 5649-5653 (1988)] (kindly provided by Stanley Korsmeyer). Transfection. […] Gas samples were taken by the analyzer through a port in the top of the chambers at a rate of 1 L/min and analyzed by electrochemical detection, with a sensitivity of 10-600 ppm. Concentration levels were measured hourly and there were no fluctuations in the CO concentrations once the chamber had equilibrated (approximately 5 min). […]

[2] = tested on: RAW 264.7 macrophages; assay: LPS-induced cytokine production in macrophages (ELISA, Western); format: cell-based, mouse; conditions: for TNF-α: RAW 264.7 macrophages
Description: Animals. Male C57BL/6 and IL-10 (−/−) mice were purchased from Jackson Laboratory (Bar Harbor, Me.), and allowed to acclimate for one week with rodent chow and water ad libitum. The MKK (−/−) mice were generated as previously described [Lu, et al., EMBO J. 18:1845-1857 (1999)]. Wild type littermates were used as controls. All animals were housed in accordance with guidelines from the American Association for Laboratory Animal Care and Research Protocols and were approved by the Animal Care and Use Committee of Yale University School of Medicine. Reagents. All reagents were purchased from Sigma Chemical Co. (St Louis, Mo.) unless specified otherwise. Plasmid Construct. Plasmid pSFFV/HO-1 was constructed by insertion of the rat HO-1 cDNA [Shibahara, et al., Proc. Natl. Acad. Sci. USA. 82: 7865-7869 (1985)] downstream of the Friend spleen focus-forming virus 5′ long-terminal repeat in the mammalian expression vector pSFFV/neo [Fuhlbrigge, et al, Proc. Natl. Acad. Sci. USA. 85: 5649-5653 (1988)] (kindly provided by Stanley Korsmeyer). Transfection. Stable transfections were carried out by the calcium phosphate precipitation technique as previously described [Alam, J., J. Biol. Chem. 269: 25049-25056 (1994)]. Briefly, RAW cells were plated (1×10^6/10 cm plate) and 16 h later, transfected with […] of pSFFV/neo or pSFFV/HO-1. Cells were exposed to the DNA-CaPO4 precipitate for 6 h, shocked by a 1 min treatment with glycerol in phosphate-buffered saline and cultured for an additional 24 h in complete medium before addition of G418. Transfectants were selected over a 3-week period in the presence of G418 (up to […]) and individual clones were isolated by limited dilution. Cell Culture Experimentation. RAW 264.7 mouse peritoneal macrophages were purchased from […] (Rockville, Md.) and primary culture of rat pulmonary vascular smooth muscle cells were harvested from male Sprague Dawley rats (250-300 g) as previously described [Gunther, et al., J. Cell. Biol. 92: 289-298 (1982).]. Both cell types were grown in DMEM containing 10% FBS and gentamicin ([…]) in a humidified atmosphere of 5% CO2/balanced air or 250 ppm CO/5% CO2/balanced air. After a 2 h pretreatment with either CO or air, LPS ([…]) or sterile saline was added to the culture media and the culture plates were returned to the chamber(s). At various time points, cell plates were removed from the chamber to collect media and/or cells for Western analysis. CO Exposures. Mice or macrophages were exposed to compressed air or 250 ppm CO. For cell culture experiments, 5% CO2 was also present for buffering requirements. CO at a concentration of 1% (10,000 ppm) in compressed air was mixed with compressed air with or without CO2 in a stainless steel mixing cylinder before delivery into the exposure chamber. Flow into the 3.70-ft^2 plexiglass animal chamber was maintained at 12 L/min and into the 1.2 ft^2 cell culture chamber at a flow of 2 L/min. The cell culture chamber was humidified and maintained at 37° C. A CO analyzer (Interscan, Chatsworth, Calif.) was used to measure CO levels continuously in the chambers. Gas samples were taken by the analyzer through a port in the top of the chambers at a rate of 1 L/min and analyzed by electrochemical detection, with a sensitivity of 10-600 ppm. Concentration levels were measured hourly and there were no fluctuations in the CO concentrations once the chamber had equilibrated (approximately 5 min). Animal Experimentation. Mice were prebled from the retroorbital sinus (0.25 ml) and then exposed to CO (250 ppm) or room air for 1 h prior to administration of LPS (1 mg/kg, i.p.), E. coli serotype O127:B8. 1 and 16 h thereafter, they were removed from the exposure apparatus individually and a blood sample was obtained via the retroorbital sinus. After the blood collection, the mice were immediately returned to the exposure chamber. […]

[3] = tested on: MKK3/MKK6; assay: LPS-induced activation of MKK3/MKK6 in RAW 264.7 cells; format: cell-based, mouse; conditions: LPS in the presence of CO (data not shown)
Description: as §1

[C-]#[O+] [CO, carbon monoxide]
cGMP ([1]; VSM (vascular smooth muscle cells), CO 250 ppm): 8.1 ± 2^c pmol/mg protein
increase in cGMP content ([1]; smooth muscle cells, 250 ppm CO): 16 fold
LPS-induced TNF-α production (ELISA) ([2]; CO 250 ppm): significantly attenuated levels
LPS-induced MIP-2 ([2]; LPS, CO 250 ppm): not affecting
LPS-induced IFN-g ([2]; LPS, CO (data not shown)): not affecting
LPS-induced JE ([2]; LPS, CO (data not shown)): not affecting
LPS-induced KC ([2]; LPS, CO (data not shown)): not affecting
LPS-induced accumulation of IL-10 ([2]; LPS, CO at 250 ppm): significantly augmented
inhibition of TNF-α production in the media by ELISA ([2]; RAW 264.7 cells, LPS in the presence of CO): > 80%
TNF-α ([2]; with LPS): 230 ± 40^b pg/ml
TNF-α ([2]; without LPS): 15 ± 5 pg/mL
TNF-α protein expression by Western blot ([2]; cell lysates and media, LPS in the presence of CO): decreased TNF-α protein expression
MKK3/MKK6 activation by LPS [3]: augmentation
